Assay results reported in US11090364B2, “Conjugates of a pharmaceutical agent and a moiety capable of binding to a glucose sensing protein” (SANOFI, priority 2016, dated 2021).
Like-named read-outs stand apart in the source and are kept apart here.

Test system: A2780 Human Carcinoma Cells
Experiment: Glucose displacement assay (ATP measurement, CellTiter-Glo)
Assay type: cell-based
Protocol: 2. Glucose Displacement Assay (ATP Measurement)
30.000 A2780 Human Carcinoma Cells are seeded per well in a Greiner 96-well plate. Cells are expanded and cultured in RPMI 1640 medium+GlutaMAX® with 10% FCS and 11 mM glucose, at 37° C. with 5% CO2. After 44 h, culture media is changed and washed once with PBS to starvation media consisting of RPMI 1640 medium with 1% FCS without glucose for 2 hours. Cells are then washed with KRB buffer, followed incubation for 20 min at 37° C. of the treatment mix consisting of: 60 μL KRB buffer/well with 10 μL of compound or DMSO 10×. 10 μl of rotenone is added to the mix to a final concentration of 0.5 μM. Cell plates are left for 2 min at room temperature. 20 μL of different glucose concentrations are added to the mix—typically 0.1 to 20 mM range -. Cells are incubated for another 15 min at 37° C., before measuring ATP with the CellTiter-Glo® Assay, under manufacturer's guidance, but without the equilibration step at room temperature for 30 min. In brief, 100 μl of Cell-Titer-Glo® Reagent is added to the wells containing already 100 μl of the previous reaction mix. Plates are mixed for 2 min at 800 rpm, followed by incubation at room temperature for 10 min to stabilize the luminescent signal. Luminescence is then recorded with the Tekan Ultra Evolution reader.

Row | IC50 (read-out: IC50) [µM] | IC50 (Homo sapiens, 10 mM Gluc, read-out: IC50 @ 10 mM Gluc) [µM] | IC50 (Homo sapiens, read-out: IC50) [µM] | IC50 (10 mM Gluc, read-out: IC50 @ 10 mM Gluc) [µM] | Molecule
1 | 84.8 |  |  |  | 6-Desoxy-6-(3-undecenyloxypheny)-4-piperazin-1-yl-D-galactopyranose [Example 141]
2 |  | > 100 | 8.37 |  | COc1cc(C(=O)OC[C@H]2OC(O)[C@H](O)[C@@H](O)[C@@H]2O)cc(Cl)c1Oc1ccccc1 (some centres unmarked) [Example 138]
3 | 33.2 |  |  | > 100 | Methyl-2-O-(3-chloro-3′-methoxy-4-phenoxyphenylcarbonyl)-α-D-glucopyranoside [Example 124]
